Assay results as given in patent EP0855387A1, “2-ACYLAMINOBENZAMIDE DERIVATIVES AND PREVENTIVE AND REMEDY FOR DISEASES CAUSED BY THE SUPERMULTIPLICATION OF VASCULAR INTIMAL CELLS” (KISSEI PHARMACEUTICAL CO., LTD., priority 1995, dated 1997).

Test system: Spontaneous hypertensive rat-derived vascular smooth muscle cells (VSMCs) in thoracic aorta
Assay: Inhibition test on vascular smooth muscle cells proliferation (3H-thymidine incorporation)
Format: cell-based
Settings: 3H-thymidine incorporation into DNA, 24 hours incubation with compound; read-out: Concentration of 50% inhibitory activity (IC50)
Description: Thus, the compounds of the present invention have a very potent inhibitory effect on vascular smooth muscle cells proliferation.
Spontaneous hypertensive rat-derived vascular smooth muscle cells (VSMCs) in thoracic aorta were isolated by explant technique. The VSMCs were placed into 96 wells at 5000 cells/well and incubated in DMEM containing 10 % fetal calf serum at 37 °C in 95 % air and 5 % carbon dioxide for 3 days. After the incubation, the medium was replaced with DMEM containing each compound and ^3H-thymidine, and then the VSMCs were incubated. 24 hours later, the incorporation of ^3H-thymidine into DNA was determined and the radioactivity was defined as proliferation inhibitory activity of VSMCs. The activity of each compound was shown as a concentration which reduced the radioactivity of non-treated group by 50 % (IC50).

Row | SMILES | IC50 [µM]
1 | COc1cc(/C=C/C(=O)Nc2ccccc2C(=O)NCCO)cc(OC)c1OC [Compound 45, (E)-N-(2-Hydroxyethyl)-2-(3,4,5-trimethoxycinnnamoylamino)benzamide] | 34
2 | COc1ccc(/C=C/C(=O)Nc2ccccc2C(=O)NCCCc2ccccc2)cc1OC [Compound 20, (E)-2-(3,4-Dimethoxycinnanoylamino)-N-(3-phenylpropyl)benzamide] | 7
3 | CCCCNC(=O)c1ccccc1NC(=O)/C=C/c1ccc(OC)c(OC)c1 [Compound 19, (E)-N-Butyl-2-(3,4-dimethoxycinnamoylanino)benzamide] | 5

Same assay, conditions: Rattus norvegicus, VSMC; 3H-thymidine incorporation into DNA, 24 hours incubation with compound; read-out: Concentration of 50% inhibitory activity (IC50)

Row | SMILES | IC50 [µM]
4 | COc1cc(/C=C/C(=O)Nc2ccccc2C(N)=O)cc(OC)c1O [Compound 69, (E)-2-(3,5-Dimethoxy-4-hydroxycinnamoylamino)benzamide] | 55
5 | CCOc1ccc(/C=C/C(=O)Nc2cc(OC)c(OC)cc2C(=O)NCCO)cc1OC [Compound 61, (E)-4,5-Dimethoxy-2-(4-ethoxy-3-methoxycinnamoylamino)-N-(2-hydroxyethyl)benzamide] | 45
6 | COc1cc(/C=C/C(=O)Nc2ccccc2C(N)=O)cc(OC)c1OC [Compound 26, (E)-2-(3,4,5-Trimethoxycinnamoylamino)benzamide] | 7
7 | COc1ccc(NC(=O)/C=C/c2ccc(OC)c(OC)c2)c(C(N)=O)c1 [Compound 67, (E)-2-(3,4-Dimethoxycinnamoylamino)-5-methoxybenzamide] | 57
8 | COc1ccc(NC(=O)/C=C/c2ccc(OC)c(OC)c2)c(C(=O)NCCO)c1 [Compound 62, (E)-2-(3,4-Dimethoxycinnamoylamino)-N-(2-hydroxyethyl)-5-methoxybenzamide] | 89
9 | COc1cc(OC)c(OC)cc1/C=C/C(=O)Nc1ccccc1C(N)=O [Compound 25, (E)-2-(2,4,5-Trimethoxycinnamoylamino)benzamide] | 6
10 | NC(=O)c1ccccc1NC(=O)/C=C/c1cccc(OCc2ccccc2)c1 [Compound 6, (E)-2-(3-Benzyloxycinnamoylamino)benzamide] | 9
11 | COc1ccc(/C=C/C(=O)Nc2ccccc2C(=O)NCCO)cc1OC [Compound 46, (E)-2-(3,4-Dimethoxycinnamoylamino)-N-(2-hydroxyethyl)benzamide] | 58
12 | COc1ccc(C(C#N)=CC(=O)Nc2ccccc2C(N)=O)cc1OC [Compound 53, 2-(β-Cyano-3,4-dimethoxycinnamoylamino)benzamide] | 56
13 | COc1ccc(/C=C/C(=O)Nc2ccccc2C(=O)NCCN(CCO)CCO)cc1OC [Compound 50, (E)-N-[2-[Bis(2-hydroxyethyl)amino]ethyl]-2-(3,4-dimethoxycinnamoylamino)benzamide] | 71
14 | COc1ccc(C=C(C#N)C(=O)Nc2ccccc2C(N)=O)cc1OC [Compound 52, 2-(α-Cyano-3,4-dimethoxycinnamoylamino)benzamide] | 117
15 | COc1ccc(/C=C/C(=O)Nc2ccccc2C(=O)NCCCCO)cc1OC [Compound 47, (E)-2-(3,4-Dimethoxycinnamoylamino)-N-(4-hydroxybutyl)benzamide] | 60
16 | CC(C)Oc1cccc(/C=C/C(=O)Nc2ccccc2C(N)=O)c1 [Compound 2, (E)-2-(3-Isopropoxycinnamoylamino)benzamide] | 14
17 | CCOc1ccc(/C=C/C(=O)Nc2ccccc2C(N)=O)cc1 [Compound 9, (E)-2-(4-Ethoxycinnamoylamino)benzamide] | 5
18 | CCOc1ccc(/C=C/C(=O)Nc2cc(OC)c(OC)cc2C(N)=O)cc1OC [Compound 65, (E)-4,5-Dimethoxy-2-(4-ethoxy-3-methoxycinnamoylamino)benzamide] | 12
19 | COc1cc(/C=C/C(=O)Nc2ccccc2C(N)=O)cc(OC)c1 [Compound 32, (E)-2-(3,5-Dimethoxycinnamoylamino)benzamide] | 80
20 | CCOc1c(OC)cc(/C=C/C(=O)Nc2ccccc2C(N)=O)cc1OC [Compound 35, (E)-2-(3,5-Dimethoxy-4-ethoxycinnamoylamino)benzamide] | 61
21 | CN(C)c1ccc(/C=C/C(=O)Nc2ccccc2C(N)=O)cc1 [Compound 55, (E)-2-(4-Dimethylaminocinnamoylamino)benzamide] | 65

Row | SMILES | IC50 [µM]
22 | COc1ccc(/C=C/C(=O)Nc2ccccc2C(=O)NCCOCCO)cc1OC [Compound 42, (E)-2-(3,4-Dimethoxycinnamoylamino)-N-[2-(2-hydroxyethoxy)ethyl]benzamide] | 69
23 | COc1cc(/C=C/C(=O)Nc2ccc(O)cc2C(N)=O)cc(OC)c1OC [Compound 63, (E)-5-Hydroxy-2-(3,4,5-trimethoxycinnamoylamino)benzamide] | 46
24 | NC(=O)c1ccccc1NC(=O)/C=C/c1cccc(F)c1 [Compound 23, (E)-2-(3-Fluorocinnamoylamino)benzamide] | 39
25 | COc1ccc(/C=C/C(=O)Nc2ccccc2C(N)=O)c(OC)c1OC [Compound 31, (E)-2-(2,3,4-Trimethoxycinnamoylamino)benzamide] | 54
26 | NC(=O)c1ccccc1NC(=O)/C=C/c1cccc(Cl)c1 [Compound 22, (E)-2-(3-Chlorocinnamoylamino)benzamide] | 30
27 | COc1cc(OC)c(/C=C/C(=O)Nc2ccccc2C(N)=O)c(OC)c1 [Compound 37, (E)-2-(2,4,6-Trimethoxycinnamoylamino)benzamide] | 100
28 | COc1ccc(/C=C/C(=O)Nc2ccccc2C(=O)NCCN(C)C)cc1OC [Compound 39, (E)-2-(3,4-Dimethoxycinnamoylamino)-N-(2-dimethylaminoethyl)benzamide] | 55
29 | COc1ccc(/C=C/C(=O)Nc2ccccc2C(N)=O)c(OC)c1 [Compound 12, (E)-2-(2,4-Dimethoxycinnamoylamino)benzamide] | 3
30 | CCCCOc1cccc(/C=C/C(=O)Nc2ccccc2C(N)=O)c1 [Compound 7, (E)-2-(3-Butoxycinnamoylamino)benzamide] | 86
31 | COc1cccc(/C=C/C(=O)Nc2ccccc2C(N)=O)c1OC [Compound 5, (E)-2-(2,3-Dimethoxycinnamoylamino)benzamide] | 5
32 | CCOc1cc(/C=C/C(=O)Nc2ccccc2C(N)=O)ccc1OC [Compound 16, (E)-2-(3-Ethoxy-4-methoxycinnamoylamino)benzamide] | 5
33 | CCOc1cccc(/C=C/C(=O)Nc2ccccc2C(N)=O)c1 [Compound 1, (E)-2-(3-Ethoxycinnamoylamino)benzamide] | 2
34 | COc1ccccc1/C=C/C(=O)Nc1ccccc1C(N)=O [Compound 24, (E)-2-(2-Methoxycinnamoylamino)benzamide] | 8
35 | COc1ccc(OC)c(/C=C/C(=O)Nc2ccccc2C(N)=O)c1 [Compound 13, (E)-2-(2,5-Dimethoxycinnamoylamino)benzamide] | 3
36 | COc1cc(/C=C/C(=O)Nc2ccccc2C(=O)NCCN(CCO)CCO)cc(OC)c1OC [Compound 51, (E)-N-[2-[Bis(2-hydroxyethyl)amino]ethyl]-2-(3,4,5-trimethoxycinnamoylamino)benzamide] | 28
37 | COc1cc(/C=C/C(=O)Nc2c(O)cccc2C(N)=O)cc(OC)c1OC [Compound 64, (E)-3-Hydroxy-2-(3,4,5-trimethoxycinnamoylamino)benzamide] | 96
38 | NC(=O)c1ccccc1NC(=O)/C=C/c1ccc2c(c1)OCO2 [Compound 30, (E)-2-(3,4-Methylenedioxycinnamoylamino)benzamide] | 9
